Results taken from PubChem BioAssay (NCI).
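Compound exposure: 48 hours, 5 concentrations, 96-well plates. GI50 marks 50% less growth. The concentration for full growth arrest is given as TGI.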

Columns and labels:
Assay in all cases: growth of human tumour cells (NCI), 48 h
[1] = system: CAKI-1 renal
[2] = system: HCT-116 colon
[3] = system: HOP-92 NSCLC
[4] = system: HS 578T breast
[5] = system: MALME-3M melanoma
[6] = system: NCI-H226 lung
[7] = system: OVCAR-4 ovarian
[8] = system: UO-31 renal
[9] = system: SK-OV-3 ovarian
[10] = system: HOP-18 NSCLC

SMILES	TGI [1] [µM]	TGI [2] [µM]	TGI [3] [µM]	TGI [4] [µM]	TGI [5] [µM]	TGI [6] [µM]	TGI [7] [µM]	TGI [8] [µM]	TGI [9] [µM]	GI50 [1] [µM]	GI50 [5] [µM]	GI50 [6] [µM]	GI50 [7] [µM]	GI50 [9] [µM]	GI50 [8] [µM]	TGI [10] [µM]	GI50 [2] [µM]	GI50 [3] [µM]	GI50 [4] [µM]
O=C(O)c1cc2ccccc2c(Cc2c(O)c(C(=O)O)cc3ccccc23)c1O	> 100	> 100	> 100	> 100	> 100	> 100	> 100	> 100											
O=C(Nc1ccccc1)c1cc2ccccc2c(N=Nc2cccc([N+](=O)[O-])c2)c1O	> 100	> 100	> 100	99.1	> 100	> 100	> 100	> 100	> 100										
COc1cccc(N/C(C)=C2/CCOC2=O)c1	> 10	> 10		> 10	> 10	> 10	> 10	> 10	> 10										
C=C1CC[C@@]2(C)[C@@H]([C@@H]1C)[C@H]1CC[C@@H]3[C@@]4(C)CC[C@H](O)C(C)(C)[C@@H]4CC[C@@]3(C)[C@]1(C)C[C@@H]2O	5.59	> 23.9	4.82	7.29	12.3	40.1	6.53	5.67	51.3										
O=C([CH-]C(=O)c1ccccc1)c1ccccc1.[C-]#[O+].[C-]#[O+].[Ir]	> 100				> 100	> 100	> 100	> 100	> 100	79.1	> 100	33.3	> 100	> 100	45.2				
CC1(CO)C(O)CCC2(C)C1CCC1CC3CC12CCC3(O)CO (stereo not given)	> 100	> 100	> 100		> 100	> 89.8	> 100	98.8	> 100							> 100			
COc1ccc(CN(CCN(C)C)c2ccccn2)cc1 (tested in a mixture with another compound)	> 100		> 100		> 100			> 100	> 100							> 100			
Cc1cc(N(CCC#N)S(=O)(=O)c2ccccc2)ccc1C=Nc1cccc(C(=O)O)c1	> 100	> 100	> 100		> 100	> 100	> 100	> 100	> 100							> 100			
C1=N[C@]23C(=N[C@H](N=C2NCc2ccco2)[C@]24N=CNC2=N[C@H]3N=C4NCc2ccco2)N1	> 100	> 100	> 100	> 100	> 100	> 100	> 100	> 100	> 100	19.5	> 100	65.4	65	> 100	> 100		> 100	5.34	39.1
O=C(NN1C(=O)C(Cl)C1c1cccc(O)c1)c1ccccc1O (stereo not given)		> 100			> 100	> 100	> 100	> 100	> 100							> 100			
